Measurements: patent publication US20170014354A1, “ZEAXANTHIN FOR TUMOR TREATMENT” (The New York Eye and Ear Infirmary, priority 2012, published 2017)

Columns and labels:
A549 = experiment: MTT cell viability, A549 lung cancer; assay type: cell-based; conditions: for Cell viability: 48 h, MTT, vs control
Experimental: (§1) Each malignant tumor cell line was cultured in Dulbecco's modified Eagle's medium (DMEM, GIBCO, Carlsbad, Calif.) supplemented with 10% fetal bovine serum (FBS, GIBCO). Cells were incubated in a humidified 5% CO2 atmosphere at 37° C. After reaching confluence, cells were detached by trypsin-EDTA solution (GIBCO), diluted 1:4-1:6, plated for subculture and were passaged routinely at a dilution of 1:4-1:6 every 4-6 days.
(§2) All cell lines were tested in triplicates.

HeLa = experiment: MTT cell viability, HeLa cervix cancer; assay type: cell-based; conditions: 48 h, vs control
Experimental: as §1, §2

SP6.5 = experiment: MTT cell viability, SP6.5 uveal melanoma; assay type: cell-based; conditions: vs control; for Cell viability: 48 h, MTT; for reduction of cell viabilities: FIG. 1B
Experimental: as §1, §2

malignant hepatic tumor = experiment: Treatment of a patient with recurred malignant hepatic tumor; assay type: in vivo, human; conditions: one patient
Experimental: In this example, zeaxanthin was used to treat a patient with malignant hepatic tumor. […] The tumor recurred in a few months in the patient after resection. The patient was then treated with zeaxanthin in view of the extensive and safe use of zeaxanthin as a supplement of the treatment of macular disorders.
In treating the recurred malignant hepatic tumor in the patient, we prescribed a dose of 80 mg/day of zeaxanthin which was used to supplement their conventional treatment of Avastin® infusion. […] The patient's condition continued to improve under the combination therapy of zeaxanthin and Avastin® infusion in the next 9 months. The patient was able to resume their social life during the period of 9 months and then passed away after 2 months. The patient's life was prolonged more than 1 year following their projected mortality under the conventional Avastin® infusion treatment on the recurring malignant hepatic tumor.
Therefore, a dosage of about 1.2 mg/kg/d of zeaxanthin was sufficient to help reducing tumor cell viability in the patient under the combination therapy.

SCC1 = experiment: MTT cell viability, SCC1 cutaneous squamous carcinoma; assay type: cell-based; conditions: 48 h, vs control
Experimental: as §1, §2

T-47D = experiment: MTT cell viability, T-47D breast cancer; assay type: cell-based; conditions: 48 h, vs control
Experimental: as §1, §2

PANC-1 = experiment: MTT cell viability, PANC-1 pancreatic cancer; assay type: cell-based; conditions: for Cell viability: 48 h, MTT, vs control
Experimental: as §1, §2

BC-1 = experiment: MTT cell viability, BC-1 lymphoma; assay type: cell-based; conditions: for Cell viability: 48 h, MTT, vs control
Experimental: as §1, §2

OCM2 = experiment: MTT cell viability, OCM2 uveal melanoma; assay type: cell-based; conditions: 48 h, vs control
Experimental: as §1, §2

DU-145 = experiment: MTT cell viability, DU-145 prostate cancer; assay type: cell-based; conditions: 48 h, vs control
Experimental: as §1, §2

OS143 = experiment: MTT cell viability, OS143 osteosarcoma; assay type: cell-based; conditions: 48 h, vs control
Experimental: as §1, §2

NCI-H820 = experiment: MTT cell viability, NCI-H820 lung cancer; assay type: cell-based; conditions: 48 h, vs control
Experimental: as §1, §2

MDA = experiment: MTT cell viability, MDA breast cancer; assay type: cell-based; conditions: for Cell viability: 48 h, MTT, vs control
Experimental: as §1, §2

MCF-7 = experiment: MTT cell viability, MCF-7 breast cancer; assay type: cell-based; conditions: for Cell viability: 48 h, MTT, vs control
Experimental: as §1, §2

HCT-15 = experiment: MTT cell viability, HCT-15 colon cancer; assay type: cell-based; conditions: 48 h, vs control
Experimental: as §1, §2

NCI-H358 = experiment: MTT cell viability, NCI-H358 lung cancer; assay type: cell-based; conditions: 48 h, vs control
Experimental: as §1, §2

PC-3 = experiment: MTT cell viability, PC-3 prostate cancer; assay type: cell-based; conditions: 48 h, vs control
Experimental: as §1, §2

COLO829 = experiment: MTT cell viability, COLO829 cutaneous melanoma; assay type: cell-based; conditions: 48 h, vs control
Experimental: as §1, §2

NCI-H1755 = experiment: MTT cell viability, NCI-H1755 lung cancer; assay type: cell-based; conditions: for Cell viability: 48 h, MTT, vs control
Experimental: as §1, §2

A375 = experiment: MTT cell viability, A375 cutaneous melanoma; assay type: cell-based; conditions: 48 h, vs control
Experimental: as §1, §2

Q: Which Cell viability (A549; A549, 10 μM zeaxanthin) does the source give for CC1=C(/C=C/C(C)=C/C=C/C(C)=C/C=C/C=C(C)/C=C/C=C(C)/C=C/C2=C(C)C[C@@H](O)CC2(C)C)C(C)(C)C[C@H](O)C1 [zeaxanthin] here?
A: 94 ± 6.6%

Q: What about the Cell viability (A549; A549, 30 μM zeaxanthin) of the same molecule?
A: 86 ± 4.4%

Q: And the Cell viability (A549; A549, 100 μM zeaxanthin)?
A: 67 ± 6.1%

Q: What about the “final concentration at which cell viability decreased significantly” value (A549; A549, vs cells without zeaxanthin) of the same molecule?
A: ≥ 100 µM

Q: And the Cell viability (HeLa; 10 μM zeaxanthin)?
A: 66 ± 3.3%

Q: And the Cell viability (HeLa; 30 μM zeaxanthin)?
A: 46 ± 1.6%

Q: And the Cell viability (HeLa; 100 μM zeaxanthin)?
A: 7.9 ± 2.0%

Q: What about the Cell viability (SP6.5; SP6.5, 10 μM zeaxanthin) of the same molecule?
A: 86 ± 4.3%

Q: And the “reduction of cell viabilities” value (SP6.5; SP6.5, 10 μM zeaxanthin)?
A: about 14%

Q: What about the Cell viability (SP6.5; SP6.5, 30 μM zeaxanthin) of the same molecule?
A: 64 ± 1.7%

Q: And the “reduction of cell viabilities” value (SP6.5; SP6.5, 30 μM zeaxanthin)?
A: ~36%

Q: What about the Cell viability (SP6.5; SP6.5, 100 μM zeaxanthin) of the same molecule?
A: 42 ± 2.2%

Q: And the “reduction of cell viabilities” value (SP6.5; SP6.5, 100 μM zeaxanthin)?
A: ~58%

Q: And the “MRI scans of multiple recurrent hepatic tumors” value (malignant hepatic tumor; 80 mg/day zeaxanthin supplementing Avastin infusion, after several months)?
A: began to shrink significantly to the point of where the tumors could not be detected

Q: What about the “prolongation of life beyond projected mortality under conventional Avastin infusion” value (malignant hepatic tumor; 80 mg/day zeaxanthin with Avastin infusion) of the same molecule?
A: more than 1 year

Q: What about the Cell viability (SCC1; SCC1, 10 μM zeaxanthin) of the same molecule?
A: 80 ± 3.5%

Q: And the Cell viability (SCC1; SCC1, 30 μM zeaxanthin)?
A: 65 ± 2.9%

Q: What about the Cell viability (SCC1; SCC1, 100 μM zeaxanthin) of the same molecule?
A: 13 ± 1.4%

Q: What about the Cell viability (T-47D; 10 μM zeaxanthin) of the same molecule?
A: 83 ± 4.2%

Q: What about the Cell viability (T-47D; 30 μM zeaxanthin) of the same molecule?
A: 57 ± 3.5%

Q: What about the Cell viability (T-47D; 100 μM zeaxanthin) of the same molecule?
A: 31 ± 1.4%

Q: What about the “final concentration at which cell viability decreased significantly” value (PANC-1; PANC, vs cells without zeaxanthin) of the same molecule?
A: ≥ 100 µM

Q: And the Cell viability (PANC-1; PANC-1, 10 μM zeaxanthin)?
A: 101 ± 6.0%

Q: What about the Cell viability (PANC-1; PANC-1, 30 μM zeaxanthin) of the same molecule?
A: 98 ± 5.5%

Q: What about the Cell viability (PANC-1; PANC-1, 100 μM zeaxanthin) of the same molecule?
A: 76 ± 5.1%

Q: And the Cell viability (BC-1; BC-1, 10 μM zeaxanthin)?
A: 79 ± 8.2%

Q: What about the Cell viability (BC-1; BC-1, 30 μM zeaxanthin) of the same molecule?
A: 67 ± 11%

Q: What about the Cell viability (BC-1; BC-1, 100 μM zeaxanthin) of the same molecule?
A: 69 ± 7.1%

Q: What about the “final concentration at which cell viability decreased significantly” value (BC-1; BC-1, vs cells without zeaxanthin) of the same molecule?
A: ≥ 30 µM

Q: And the Cell viability (OCM2; OCM2, 10 μM zeaxanthin)?
A: 90 ± 4.9%

Q: And the Cell viability (OCM2; OCM2, 30 μM zeaxanthin)?
A: 70 ± 2.1%

Q: And the Cell viability (OCM2; OCM2, 100 μM zeaxanthin)?
A: 46 ± 2.0%

Q: What about the Cell viability (DU-145; DU-145, 10 μM zeaxanthin) of the same molecule?
A: 78 ± 5.0%

Q: What about the Cell viability (DU-145; DU-145, 30 μM zeaxanthin) of the same molecule?
A: 65 ± 5.5%

Q: And the Cell viability (OS143; OS143, 10 μM zeaxanthin)?
A: 82 ± 5.0%

Q: What about the Cell viability (OS143; OS143, 30 μM zeaxanthin) of the same molecule?
A: 78 ± 3.4%

Q: What about the Cell viability (OS143; OS143, 100 μM zeaxanthin) of the same molecule?
A: 42 ± 1.3%

Q: What about the Cell viability (NCI-H820; NCI-H820, 10 μM zeaxanthin) of the same molecule?
A: 76 ± 4.5%

Q: What about the Cell viability (NCI-H820; NCI-H820, 30 μM zeaxanthin) of the same molecule?
A: 68 ± 3.1%

Q: And the Cell viability (NCI-H820; NCI-H820, 100 μM zeaxanthin)?
A: 38 ± 1.7%

Q: What about the Cell viability (MDA; 10 μM zeaxanthin) of the same molecule?
A: 97 ± 6.36%

Q: And the Cell viability (MDA; 30 μM zeaxanthin)?
A: 95 ± 5.1%

Q: What about the Cell viability (MDA; 100 μM zeaxanthin) of the same molecule?
A: 92 ± 9.2%

Q: What about the “decrease of cell viability after zeaxanthin treatment” value (MDA; final concentration as high as 100 μM) of the same molecule?
A: did not see statistically significant decrease of cell viability

Q: What about the Cell viability (MCF-7; MCF-7, 10 μM zeaxanthin) of the same molecule?
A: 86 ± 4.0%

Q: And the Cell viability (MCF-7; MCF-7, 30 μM zeaxanthin)?
A: 73 ± 8.3%

Q: And the Cell viability (MCF-7; MCF-7, 100 μM zeaxanthin)?
A: 52 ± 2.4%

Q: What about the “final concentration at which cell viability decreased significantly” value (MCF-7; MCF-7, vs cells without zeaxanthin) of the same molecule?
A: ≥ 30 µM

Q: What about the Cell viability (HCT-15; HCT-15, 10 μM zeaxanthin) of the same molecule?
A: 62 ± 3.4%

Q: And the Cell viability (HCT-15; HCT-15, 30 μM zeaxanthin)?
A: 46 ± 2.4%

Q: And the Cell viability (HCT-15; HCT-15, 100 μM zeaxanthin)?
A: 12 ± 1.3%

Q: What about the Cell viability (NCI-H358; NCI-H358, 10 μM zeaxanthin) of the same molecule?
A: 80 ± 3.5%

Q: What about the Cell viability (NCI-H358; NCI-H358, 30 μM zeaxanthin) of the same molecule?
A: 65 ± 3.0%

Q: And the Cell viability (NCI-H358; NCI-H358, 100 μM zeaxanthin)?
A: 37 ± 1.3%

Q: And the Cell viability (PC-3; PC-3, 10 μM zeaxanthin)?
A: 74 ± 4.4%

Q: And the Cell viability (PC-3; PC-3, 30 μM zeaxanthin)?
A: 62 ± 3.2%

Q: What about the Cell viability (PC-3; PC-3, 100 μM zeaxanthin) of the same molecule?
A: 39 ± 2.6%

Q: And the Cell viability (COLO829; COLO829, 10 μM zeaxanthin)?
A: 73 ± 4.6%

Q: And the Cell viability (COLO829; COLO829, 30 μM zeaxanthin)?
A: 52 ± 2.0%

Q: What about the Cell viability (COLO829; COLO829, 100 μM zeaxanthin) of the same molecule?
A: 28 ± 1.2%

Q: What about the Cell viability (NCI-H1755; NCI-H1755, 10 μM zeaxanthin) of the same molecule?
A: 86 ± 6.7%

Q: And the Cell viability (NCI-H1755; NCI-H1755, 30 μM zeaxanthin)?
A: 81 ± 4.5%

Q: What about the Cell viability (NCI-H1755; NCI-H1755, 100 μM zeaxanthin) of the same molecule?
A: 81 ± 90%

Q: And the “final concentration at which cell viability decreased significantly” value (NCI-H1755; NCI-H1755, vs cells without zeaxanthin)?
A: ≥ 30 µM

Q: What about the Cell viability (A375; A375, 10 μM zeaxanthin) of the same molecule?
A: 62 ± 2.7%

Q: What about the Cell viability (A375; A375, 30 μM zeaxanthin) of the same molecule?
A: 41 ± 2.7%

Q: What about the Cell viability (A375; A375, 100 μM zeaxanthin) of the same molecule?
A: 6%
